Assay results from patent US20250163038A1, “CBL-B MODULATORS AND USES THEREOF” (Nimbus Clio, Inc., priority 2021, published 2025).

What follows are compounds tested against Recombinant human Cbl-b (aa 36-427) (Homo sapiens, UniProt Q13191) (assay: Cbl-b Biochemical Assay (TR-FRET)). Details: read-out: TR-FRET hCbl-b IC50.
Sequence of Recombinant human Cbl-b (aa 36-427) (Q13191 36-427): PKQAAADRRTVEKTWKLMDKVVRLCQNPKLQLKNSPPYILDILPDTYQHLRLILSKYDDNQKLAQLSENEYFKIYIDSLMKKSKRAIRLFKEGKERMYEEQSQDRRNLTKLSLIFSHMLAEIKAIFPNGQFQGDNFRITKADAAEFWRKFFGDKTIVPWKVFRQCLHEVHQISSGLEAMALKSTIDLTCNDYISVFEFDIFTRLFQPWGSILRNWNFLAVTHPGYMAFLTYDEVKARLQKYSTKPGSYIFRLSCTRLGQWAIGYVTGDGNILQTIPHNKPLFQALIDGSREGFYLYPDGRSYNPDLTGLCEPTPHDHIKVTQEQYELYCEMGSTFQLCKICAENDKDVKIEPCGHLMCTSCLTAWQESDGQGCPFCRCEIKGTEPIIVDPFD

| Compound | IC50 |
| --- | --- |
| Cn1cnnc1CC1(c2cccc(-c3nc4cc(Br)cc(C(F)(F)F)c4[nH]3)c2)COC1 [ABE-2, 5-Bromo-2-(3-(3-((4-methyl-4H-1,2,4-triazol-3-yl)methyl)oxetan-3-yl)phenyl)-7-(trifluoromethyl)-1H-benzo[d]imidazole] | 10 to 50 µM |
| Cn1cnnc1CC1(c2cccc(-c3nc4c(C(F)(F)F)cccc4s3)c2)COC1 [ABF-4, 2-(3-[3-[(4-Methyl-1,2,4-triazol-3-yl)methyl]oxetan-3-yl]phenyl)-4-(trifluoromethyl)-1,3-benzothiazole] | 10 to 50 µM |
| Cn1cnnc1CC1(c2cccc(-c3nc4cccc(C5CC5)c4[nH]3)c2)COC1 [ABG-3, 7-Cyclopropyl-2-(3-(3-((4-methyl-4H-1,2,4-triazol-3-yl)methyl)oxetan-3-yl)phenyl)-1H-benzo[d]imidazole] | 10 to 50 µM |
| Cn1cnnc1CCc1cccc(-c2nc3cccc(C(F)(F)F)n3n2)c1 [ABI-7, 2-(3-(2-(4-Methyl-4H-1,2,4-triazol-3-yl)ethyl)phenyl)-5-(trifluoromethyl)-[1,2,4]triazolo[1,5-a]pyridine] | 10 to 50 µM |
| Cn1cnnc1CC1(c2cccc(-c3nc4cccc(Cl)c4[nH]3)c2)COC1 [ABM-2, 7-Chloro-2-(3-(3-((4-methyl-4H-1,2,4-triazol-3-yl)methyl)oxetan-3-yl)phenyl)-1H-benzo[d]imidazole] | 10 to 50 µM |
| Cn1cnnc1-c1cnn(C)c1-c1cccc(-c2nc3cccc(C(F)(F)F)n3n2)c1 [ABN-2, 4-Methyl-3-(1-methyl-5-{3-[5-(trifluoromethyl)-[1,2,4]triazolo[1,5-a]pyridin-2-yl]phenyl}pyrazol-4-yl)-1,2,4-triazole] | 10 to 50 µM |
| Cn1cnnc1CC1(c2cccc(-c3nc4cccc(Br)c4[nH]3)c2)COC1 [ABP-2, 4-Bromo-2-(3-[3-[(4-methyl-1,2,4-triazol-3-yl)methyl]oxetan-3-yl]phenyl)-1H-1,3-benzodiazole] | 10 to 50 µM |
| Cn1cnnc1CC1(c2cccc(-c3nc4cccc(OC(F)(F)F)c4[nH]3)c2)COC1 [ABQ-2, 2-(3-(3-((4-Methyl-4H-1,2,4-triazol-3-yl)methyl)oxetan-3-yl)phenyl)-7-(trifluoromethoxy)-1H-benzo[d]imidazole] | 10 to 50 µM |
| Cn1cnnc1-c1ccccc1-c1cccc(-c2nc3cccc(C(F)(F)F)c3[nH]2)c1 [ABW-1, 2-(2′-(4-Methyl-4H-1,2,4-triazol-3-yl)-[1,1′-biphenyl]-3-yl)-7-(trifluoromethyl)-1H-benzo[d]imidazole] | 10 to 50 µM |
| Cn1cnnc1CC1(c2cccc(-c3nc4cc(C(=O)Nc5nccn5C)cc(C(F)(F)F)c4[nH]3)c2)COC1 [ABZ-2, N-(1-Methyl-1H-imidazol-2-yl)-2-(3-(3-((4-methyl-4H-1,2,4-triazol-3-yl)methyl)oxetan-3-yl)phenyl)-7-(trifluoromethyl)-1H-benzo[d]imidazole-5-carboxamide] | 10 to 50 µM |
| Cn1cnnc1-c1ccccc1-c1cccc(-c2nc3cc(C(=O)N4CCC5(CC5)C4)cc(C(F)(F)F)c3[nH]2)c1 [ACE-1, (2-(2′-(4-Methyl-4H-1,2,4-triazol-3-yl)-[1,1′-biphenyl]-3-yl)-7-(trifluoromethyl)-1H-benzo[d]imidazol-5-yl)(5-azaspiro[2.4]heptan-5-yl)methanone] | 10 to 50 µM |
| Cn1cnnc1CC1(c2cccc(-c3cc(C(F)(F)F)cn(CCN4CC(O)C4)c3=O)c2)COC1 [ACH-5, 1-(2-(3-Hydroxyazetidin-1-yl)ethyl)-3-(3-(3-((4-methyl-4H-1,2,4-triazol-3-yl)methyl)oxetan-3-yl)phenyl)-5-(trifluoromethyl) pyridin-2(1H)-one] | 10 to 50 µM |
| Cn1cnnc1CC1(c2cccc(-c3cc4cccc(C(F)(F)F)c4[nH]3)c2)COC1 [ACP-4, 2-(3-(3-((4-Methyl-4H-1,2,4-triazol-3-yl)methyl)oxetan-3-yl)phenyl)-7-(trifluoromethyl)-1H-indole] | 10 to 50 µM |
